Laboratory results from article PMC11676734, “Novel Cyclic Peptide–Drug Conjugate P6-SN38 Toward Targeted Treatment of EGFR Overexpressed Non-Small Cell Lung Cancer” (Pharmaceutics, 2024).
Positions of bridges follow the written chain, without caps; N, C: chain ends. Residues, ends and D or L forms follow the SMILES beside them. *: point of attachment. X1 = CCc1c2c(nc3ccc(O)cc13)-c1cc3c(c(=O)n1C2)COC(=O)[C@@]3(CC)OC(=O)CCC(=O)*; GABA = NCCCC(=O)O

What was measured:
K562 (EGFR−) tumor = test: In vivo tumor growth inhibition, K562 (EGFR−) xenograft; set-up: species or system NOD/SCID (nude) mice; details: 10 mg/kg i.v. once a week, 3 times
Procedure: (§1) Animal protocols were approved by the Institutional Animal Care and Use Committee at Ariel University. NOD/SCID (nude) mice were injected with H1299 in the right flank and K562 cells in the left flank (10^6 cells each), so that each mouse developed dual H1299 and K562 xenografts.
(§2) When tumors reached~50 mm^3, mice were injected via tail vein (i.v.).
(§3) The mice’s weight and tumor volumes were measured every 2 days. The tumor sizes were measured by using the hands-on digital caliper method, and the tumor volumes were calculated according to the Formula (1). Tumor volume (mm^3) = 0.5 × Tumor Length × Tumor Width^2(1)
Figure 6 In vivo effect of P6-SN38 conjugate in NSCLC model (10 mg/kg, once a week). […] The resected tumors are shown in (C). N = 4 in each group. * p < 0.05, ** p < 0.005, *** p < 0.001, **** p < 0.0001.

EGFR− HEK293 cells = test: XTT cell viability / cytotoxicity, HEK293 cells; type: cell-based; details: 6 h pre-incubation, wash; for effect on EGFR− HEK-293 cells: further incubation, in words; for IC50: HEK293, XTT
Procedure: (§4) Cell proliferation in the presence of P6-SN38 was evaluated using a commercial XTT assay kit (Enhanced Cell Counting Kit 8 (WST-8/CCK8); Elabscience, Houston, TX, USA). A total of 10^4 cells per well were seeded in 96-well plates and incubated overnight in complete RPMI growth medium. After washing, the cells were cultured in 100 µL of fresh medium containing varying concentrations of free SN38 or PDC for 3 h and 6 h (pre-incubation). Following this, the cells were washed again and incubated for an additional 24, 48, and 72 h. The XTT reagent was then added to each well, and the plate was incubated for 2 h at 37 °C. For cytotoxicity analysis, absorbance was measured at 450 nm and 630 nm using a TECAN Infinite M200 ELISA reader (Citrine Solutions, Oranit, Israel). All assays were performed in triplicate, and each experiment was repeated three times.
(§5) Figure 2 Cell viability after 6 h of pre-incubation of EGFR+ H1299 (A) and EGFR− HEK293 (B) cell lines with P6-SN38 and SN38. H1299 and HEK293 cells were cultured in a 96-well plate and pre-incubated with six different concentrations (0.5, 2.5, 5, 10, 15, and 25 μM) of P6-SN38 or SN38 for 6 h, washed out, and incubated additionally for 24 h, 48 h, and 72 h. Cell viability was assessed using an XTT assay, with the viability of untreated control cells set at 100%. The viability of treated cells was expressed as a percentage relative to the control. Data are presented as the mean ± standard deviation (SD).

H1299 cells [1] = test: Apoptosis assay, Annexin V-FITC/PI flow cytometry; type: cell-based; details: 2.5 µM, 6 h pre-treatment, wash, mean ± SD; for apoptotic rate / late-stage apoptosis rate: 24 h; for apoptosis / late apoptosis rate: 48 h
Procedure: H1299 cells were seeded at the concentration of 5 × 10^4 cells/mL in the RPMI 1640 growth medium and incubated in 6-well plates at 37 °C under 5% CO2. The next day, the medium was removed, and P6-SN38, or free SN38 (2.5 µM), in fresh medium was added and incubated for 6 h. Then, the medium was removed by washing out, fresh medium was added, and the plates were incubated for an additional 24 and 48 h. The cells were collected with 0.25% trypsin/EDTA solution and washed with PBS twice at 1500 rpm for 5 min. After that, Annexin-FITC (5 µM) and propidium Iodide (PI, 5 µM) were added (both from Abcam, Cambridge, UK). The cells were incubated for 15 min in the dark, and the samples (2 × 10^4 cells) were analyzed by flow cytometry.
SN38, a potent topoisomerase I inhibitor, disrupts DNA replication, leading to cell cycle arrest and apoptosis. To evaluate and compare the effects of peptide-bound SN38 (P6-SN38) and free SN38 on DNA damage and cell cycle distribution (Section 3.4), H1299 cells were pre-treated with both compounds at a concentration of 2.5 µM for 6 h, followed by washing and continued incubation for 24 or 48 h (Figure 3).
Figure 3 Apoptosis of H1299 cells estimated through cell survival percentage by binding with annexin V-FITC. H1299 cells were pre-incubated with P6-SN38 and SN38 as described in Section 2.6. Cells were stained with annexin and PI and analyzed by flow cytometry; * p < 0.05, *** p < 0.001, **** p < 0.0005. “ns” means non-significant.

H1299 (EGFR+) tumor = test: In vivo tumor growth inhibition, H1299 (EGFR+) xenograft; set-up: species or system NOD/SCID (nude) mice; details: 3 times, N = 4
Procedure: as §1, §2, §3
(§6) The resected tumors are shown in (C). N = 4 in each group. * p < 0.05, ** p < 0.005, *** p < 0.001, **** p < 0.0001.

H1299 cells [2] = test: Cell cycle analysis, PI flow cytometry; type: cell-based; details: 2.5 µM, 6 h pre-treatment, in words
Procedure: Cell cycle analysis was conducted using a cell cycle detection kit (Biotopped, Huangshan, China). H1299 cells were seeded in 5 × 10^4 cells/mL concentration in the complete growth medium. (RPMI 1640) Incubation was performed in 6-well plates at 37 °C under 5% CO2. The next day, the medium was removed, and the fresh medium containing P6-SN38 or free SN38 (2.5 µM) was added and incubated for 6 h. Then, the medium was removed by washing, a fresh medium was added, and the cells were incubated for an additional 24 and 48 h. Then, the cells were trypsinized and washed with PBS twice at 1500 rpm for 5 min. Cells were fixed in 66% ethanol for 2 h. Then, cells were incubated with 0.2 mL buffer solution containing PI (25 μL) and RNase A (10 μL) after being rinsed with cold PBS (according to the manufacturer’s protocol). Finally, the cell cycle was analyzed by Beckman CytoFLEX FCM (Bio-Rad Laboratories, Inc., Rishon Le Zion, Israel).
To investigate whether the observed growth inhibition and apoptosis were mediated by cell cycle arrest, we examined the effects of P6-SN38 and free SN38 on cell cycle progression in NSCLC H1299 cells. The cells were pre-treated with the compounds for 6 h, followed by an additional 24 or 48 h incubation period (Figure 4A,B).
Figure 4 Cell cycle arrest analysis of treatment with SN38 and P6-SN38. Cell cycle distribution of H1299 cells detected by flow cytometry after 24 h (A) and 48 h (B) treatment with SN38 and P6-SN38 at 2.5 µM. A total of 1 × 10^6 cells were pre-incubated with P6-SN38 or SN38 for 6 h, followed by additional incubation for 24 h and 48 h. The cells were then stained with propidium iodide (PI) and analyzed by flow cytometry (C). The data in A and B are presented as the mean ± SD (n = 3). “ns” means non-significant. * p < 0.05, *** p < 0.001, **** p < 0.0005. “ns” means non-significant. TEXT PRINTED IN THE PICTURE: (C) 01-H1299_P6_24h-B9.fcs: %G1 : 6.76; %S : 52.1; %G2 : 40.6 | (C) 01-H1299_P6_48h-D8.fcs: %G1 : 9.76; %S : 47.2; %G2 : 40.6 | (C) 01-H1299_SN_24h-A9.fcs: %G1 : 0; %S : 39.4; %G2 : 54.0 | (C) 01-H1299_SN_48h-C8.fcs: %G1 : 9.66; %S : 61.4; %G2 : 27.8 DOUBTS OF THE COPYIST ABOUT THIS PICTURE: 01-H1299_P6_24h-B9.fcs, %G1: small print, 6.76 could be 8.76 or 6.78 / 01-H1299_P6_24h-B9.fcs, %G2: small print, 40.6 could be 40.8 / 01-H1299_P6_48h-D8.fcs, %G1: small print, 9.76 could be 9.78 / 01-H1299_P6_48h-D8.fcs, %G2: small print, 40.6 could be 40.8 / 01-H1299_SN_24h-A9.fcs, %S: small print, 39.4 could be 38.4 / 01-H1299_SN_48h-C8.fcs, %G1: small print, 9.66 could be 9.68 or 9.86 / 01-H1299_SN_48h-C8.fcs, %G2: small print, 27.8 could be 27.6 / The untreated samples (01-H1299_24h_UT-A6.fcs, 01-H1299_UT_48h-C6.fcs) were left out because they stand for no substance. The RMSD values were left out as fit statistics.

[3] = Mice body weight during efficacy study; type: in vivo, NOD/SCID (nude) mice; details: i.v. once a week, 3 times; P6-SN38 10 mg/kg, Erbitux 10 mg/kg, free SN38 3 mg/kg; 18 days; N = 4
Procedure: as §2, §3, §6

EGFR+ H1299 cells = test: XTT cell viability / cytotoxicity, H1299 cells; type: cell-based; details: 6 h pre-incubation, wash
Procedure: as §4, §5

Compound	effect on growth of K562 (EGFR−) tumors, in words (K562 (EGFR−) tumor; 18 days)	K562 tumor volume (K562 (EGFR−) tumor; day 18, initial ~50 mm^3, control 1772 ± 265, N = 4) [mm^3]	effect on EGFR− HEK-293 cells (EGFR− HEK293 cells)	IC50 (EGFR− HEK293 cells; 48 h incubation) [nM]	IC50 (EGFR− HEK293 cells; 72 h incubation) [nM]	apoptotic rate (H1299 cells [1]) [%]	late-stage apoptosis rate (H1299 cells [1]) [%]	apoptosis (H1299 cells [1]) [%]	late apoptosis rate (H1299 cells [1]) [%]	H1299 tumor eradication (H1299 (EGFR+) tumor; 10 mg/kg i.v. once a week, day 18)	cell cycle phase of arrest (H1299 cells [2]; 24 h)	cell cycle phase of arrest (H1299 cells [2]; 48 h)	mice weight loss, in words [3]	IC50 (EGFR+ H1299 cells; 48 h incubation) [nM]	IC50 (EGFR+ H1299 cells; 72 h incubation) [nM]	effect on tumor growth, in words (H1299 (EGFR+) tumor; i.v. once a week, Erbitux 10 mg/kg, free SN38 3 mg/kg, 18 days)
CCc1c2c(nc3ccc(O)cc13)-c1cc3c(c(=O)n1C2)COC(=O)[C@@]3(CC)OC(=O)CCC(=O)NCCCC(=O)N[C@H]1CSSC[C@@H](C(N)=O)NC(=O)[C@H]([C@@H](C)CC)NC(=O)[C@H](Cc2ccc(O)cc2)NC(=O)[C@H](CO)NC(=O)CNC(=O)[C@@H]2CCCN2C(=O)[C@H](C(C)C)NC(=O)[C@H](Cc2c[nH]cn2)NC1=O [P6-SN38] ({X1-GABA}-CHVPGSYIC-NH2; disulfide 1-9)	did not affect the growth	1522 ± 561	nearly no effect	> 50000	> 50000	12.9 ± 4.2	14.1 ± 7.3	21.48 ± 9.90	25.32 ± 10.00	eradicated completely in 3 out of 4 mice	both the S and G2/M phases	S/G2 phase arrest	minimal weight loss	2500	900	–
CCc1c2c(nc3ccc(O)cc13)-c1cc3c(c(=O)n1C2)COC(=O)[C@]3(O)CC [SN38]	–	–	active in both cell lines	4400	2700	16.3 ± 6.4	15.2 ± 6.8	19.27 ± 5.11	26.80 ± 14.90	–	G2/M phase arrest	S/G2 phase arrest	significant weight loss	800	500	non-specific tumor reduction
